One assay relates to PAH-FBs. Briefly: Cell proliferation by BrdU incorporation in PAH fibroblasts. Format: cell-based, human. The note with it: PAH-FBs isolated ex vivo; various concentrations; vs DMSO; 24 h. An excerpt:
Diese Untersuchungen führten zu der Erkenntnis, dass die epigenetische Regulation der entwicklungsbedingten TF-Expression in der Lunge durch Modulation der EP300/CREBBP-Funktion rückgängig gemacht werden kann. Die Wirkung des niedermolekularen Inhibitors (Substanz, Wirkstoff) SGC-CBP30 auf die Proliferation von Gefäßzellen, die Apoptose sowie die Gen- und Proteinexpression wurde mit Hilfe geeigneter Assays nach der Transfektion untersucht. Nachdem Zellen zur Subkonfluenz gewachsen sind, wurde ihnen mit steigenden Konzentrationen der selektive EP300-Inhibitor SGC-CBP30 (Sigma, Katalognummer: SML1133) hinzugefügt. Die aus PAH-Patienten isolierten FBs wurden also mit dem isoformselektiven HAT-Inhibitor SGC-CBP30 behandelt. Gleichzeitig wurde den Zellen das Lösungsmittel DMSO (Sigma) mit entsprechenden Konzentrationen hinzugefügt. […]
• A: PAH-FBs wurden mit siRNAs (siP300) behandelt, die auf EP300 abzielen (n=3), um die genspezifische funktionelle Rolle von EP300 bei der Hyperproliferation ex vivo 48 Stunden nach der Transfektion zu untersuchen. […] Skalenbalken: 50 µm. • E: Die Wirkung der P300-Inhibition (200 µM) auf den Gefäßumbau wurde durch Quantifizierung der prozentualen medialen Wanddicke in den mit dem EP300/CREBBP-Inhibitor SGC-CBP30 inkubierten PCLS im Vergleich zu den mit DMSO inkubierten Kontrollen bewertet. […]
A general note: Uptake of a labelled nucleoside into DNA is a usual measure of proliferation.

A further assay has as its system PAH-SMCs. Kind of assay: Apoptosis in PAH smooth muscle cells. Format: cell-based, human. The conditions noted are these: vs DMSO. An excerpt:
PAH-FBs wurden mit verschiedenen Konzentrationen der Substanz SGC-CBP30 oder dem Lösungsmittel DMSO inkubiert, um die Zellproliferation und die Induktion von Apoptose 24 Stunden danach zu untersuchen. Die Wirkung der selektiven EP300/CREBBP-Inhibition auf die Zellproliferation wurde durch den Einbau von BrdU (Bromodeoxyuridin, 5-Bromo-2'-Deoxyuridin, BUdR, BrdUrd, Broxuridine) bewertet. Die Wirkung der Substanz SGC-CBP30 oder des Lösungsmittels DMSO auf die Induktion von Apoptose wurde durch Cell Death Detection ELISAPLUS bewertet. Dabei zeigten sich deutliche Unterschiede zwischen der Substanz SGC-CBP30 und dem Lösungsmittel DMSO.
Das therapeutische Potenzial der EP300/CREBBP-Hemmung durch die Substanz SGC-CBP30 wurde untersucht. Dazu wurde die Wirksamkeit auf PAH-FBs und PAH-SMCs geprüft, die aus den Lungenarterien von menschlichen PAH-Patienten und aus den Lungenarterien von Ratten mit MCT-PAH (Rattenmodell mit Monocrotalin) isoliert wurden. […] Die Wirkung der EP300-Hemmung auf das vaskuläre Remodelling wurde durch Quantifizierung der prozentualen medialen Wanddicke in den mit der Substanz SGC-CBP30 inkubierten PCLS im Vergleich zu den mit DMSO inkubierten Kontrollen bewertet. Dabei zeigten sich deutliche Unterschiede zwischen der Substanz SGC-CBP30 und DMSO.

For `COc1ccc(CCc2nc3cc(-c4c(C)noc4C)ccc3n2C[C@H](C)N2CCOCC2)cc1Cl` [SGC-CBP30, 2-[2-(3-Chloro-4-methoxyphenyl)ethyl]-5-(3,5-dimethyl-1,2-oxazol-4-yl)-1-[(S)-2-(morpholin-4-yl)propyl]-1H-benzimidazole], in the assay with PAH-FBs, the “hyperproliferativer Phänotyp (Zellproliferation, BrdU)” value is on record as “schwächte den hyperproliferativen Phänotyp und die Apoptoserate von PAH-FBs und PAH-SMCs deutlich ab”. In the assay with PAH-SMCs, the Apoptoserate entry is “schwächte den hyperproliferativen Phänotyp und die Apoptoserate von PAH-FBs und PAH-SMCs deutlich ab”.

These data come from patent EP4257135A1, “BENZIMIDAZOLE DERIVATIVES FOR PULMONARY ARTERIAL HYPERTENSION” (Justus-Liebig-Universität Gießen, priority 2022, dated 2023).
